Results as given in patent US12071404B2, “Aza (indole)-, benzothiophene-, and benzofuran-3-sulfonamides” (UCB Pharma GmbH, priority 2016, dated 2024).

Key:
GPR17 [1] = target: T1, GPR17 (Homo sapiens, UniProt Q13304); test: Calcium mobilization functional assay (GPR17 Ca2+ assay); type: cell-based; set-up: host or cells: Flp-In T-REx CHO; conditions: CHO hGPR17 cells, inhibition of 50 nM MDL29,951, Calcium 5 dye, FLIPR; read-out: Ca2+ assay pIC50 (converted)
Procedure, shortened: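 Flp-In T-REx CHO cells stably expressing human GPR17, doxycycline-induced (1 μg/mL, 16-20 h), loaded 60 min with Calcium 5 dye. Inhibition by varying test-compound concentrations of the 50 nM MDL29,951 agonist response was read by fluorescence over time at room temperature. pIC50 came from 4-parameter logistic fitting.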

GPR17 [2] = target: T1, GPR17; test: cAMP accumulation functional assay (HTRF, Schild analysis); type: cell-based; set-up: host or cells: Flp-In T-REx CHO; conditions: CHO hGPR17 cells, Schild analysis vs MDL29,951, 5 μM forskolin, read-out: cAMP assay pA2 (converted)
Experimental: Flp-In T-REx CHO cells stably expressing human GPR17 receptor (CHO hGPR17) from Evi Kostenis' lab (Bonn University, Germany) were cultured at 37° C. in a humidified atmosphere of 5% CO2. Cells were grown in DMEM with Nutrient Mixture F-12 supplemented with hygromycin B (500 μg/mL) and blasticidin (30 μg/mL). Expression from the Flp-In locus was induced by treatment with doxycycline (1 μg/mL) for 16-20 h prior assays.
GPR17 activation can also recruit Gi-type G-protein signaling, resulting in a decrease of intracellular cyclic adenosine monophosphate (cAMP). Intracellular cAMP changes can be measured using the HTRF cAMP dynamic assay kit from CisBio (Codolet, France). Using homogenous time-resolved fluorescence technology (HTRF), the assay is based on competition between native cAMP produced by cells and cAMP labelled with the dye d2. The tracer binding was determined by an anti-cAMP antibody labeled with cryptate.
CHO hGPR17 were detached with PBS containing EDTA and dispatched in black 384-well plates with 5,000 cells per well. Cells were first incubated for 30 minutes at room temperature in HBSS Hepes (pH 7.4) containing vehicle or varying concentrations of test GPR17 antagonist/inverse agonist compounds. […] After 60 minutes incubation at room temperature, the reaction is terminated and the cells lysed by adding the d2 detection reagent and the cryptate reagent in 10 μL lysis buffer each according to manufacturer's instructions. After 60 minutes incubation, changes in cAMP concentrations are measured according to manufacturer's instructions using an Envision plate reader with laser excitation. All incubations were performed in duplicate. Data was analyzed using GraphPad Prism software using the 4-parameter logistic equation to measure MDL29,951 pEC50s in absence and presence of GPR17 antagonist/inverse agonist test compounds. Dose ratio (DR) were plotted against antagonist concentrations and Schild analysis provided estimated affinity pA2 of GPR17 antagonist/inverse agonist test compounds.
The activities of the Example compounds tested are depicted in the table below. The activity ranges A, B and C refer to pA2 values in the cAMP assay as follows: “A”: pA2<7.5, “B”: pA2 7.5<x≤8.5, “C”: pA2>8.5.

T1 sequence (Q13304 whole entry): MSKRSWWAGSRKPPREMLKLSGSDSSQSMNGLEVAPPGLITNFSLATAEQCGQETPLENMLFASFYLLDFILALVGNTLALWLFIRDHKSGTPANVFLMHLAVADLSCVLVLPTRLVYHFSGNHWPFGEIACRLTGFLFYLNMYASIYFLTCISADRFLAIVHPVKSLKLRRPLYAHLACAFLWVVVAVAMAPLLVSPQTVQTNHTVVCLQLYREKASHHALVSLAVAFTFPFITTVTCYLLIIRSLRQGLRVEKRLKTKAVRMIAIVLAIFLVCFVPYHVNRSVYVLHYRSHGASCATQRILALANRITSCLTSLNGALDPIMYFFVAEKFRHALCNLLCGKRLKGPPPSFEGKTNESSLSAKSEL

SMILES	IC50 (GPR17 [1])	Kb (GPR17 [2])
COc1nc(NS(=O)(=O)c2c[nH]c3c(F)c(Cl)ccc23)c(F)cc1CC#N [Compound I-354, 6-chloro-N-[5-(cyanomethyl)-3-fluoro-6-methoxypyridin-2-yl]-7-fluoro-1H-indole-3-sulfonamide]	< 3.16 nM	< 3.16 nM
COc1ccc2c(S(=O)(=O)Nc3cc(F)c(Cl)cc3F)c(F)[nH]c2c1 [Compound I-318, N-(4-chloro-2,5-difluorophenyl)-2-fluoro-6-methoxy-1H-indole-3-sulfonamide]	3.16 to 31.6 nM	3.16 to 31.6 nM
N#Cc1ccc(NS(=O)(=O)c2c[nH]c3cc(-c4ccccc4)ccc23)c(F)c1 [Compound I-233, N-(4-cyano-2-fluorophenyl)-6-phenyl-1H-indole-3-sulfonamide]	3.16 to 31.6 nM	> 31.6 nM
O=S(=O)(Nc1ccc(F)c2nsnc12)c1c[nH]c2cc(Cl)ccc12 [Compound I-127, 6-chloro-N-(7-fluoro-2,1,3-benzothiadiazol-4-yl)-1H-indole-3-sulfonamide]	3.16 to 31.6 nM	3.16 to 31.6 nM
O=S(=O)(Nc1nc(F)c(Cl)cc1F)c1c[nH]c2c3c(ccc12)CCC3 [Compound I-317, N-(5-chloro-3,6-difluoropyridin-2-yl)-1,6,7,8-tetrahydrocyclopenta[g]indole-3-sulfonamide]	3.16 to 31.6 nM	3.16 to 31.6 nM
O=S(=O)(Nc1cc(F)c(OC(F)F)cc1F)c1c[nH]c2nc(C(F)F)ccc12 [Compound I-363, N-[4-(difluoromethoxy)-2,5-difluorophenyl]-6-(difluoromethyl)-1H-pyrrolo[2,3-b]pyridine-3-sulfonamide]	3.16 to 31.6 nM	3.16 to 31.6 nM
CCOC(=O)/C=C/c1cc(F)c(NS(=O)(=O)c2c[nH]c3cc(Cl)ccc23)nc1F [Compound I-330, Ethyl (2E)-3-(6-{[(6-chloro-1H-indol-3-yl)sulfonyl]amino}-2,5-difluoropyridin-3-yl)prop-2-enoate]	3.16 to 31.6 nM	< 3.16 nM
COc1nc(NS(=O)(=O)c2c[nH]c3cc(Cl)ccc23)c(F)cc1CC#N [Compound I-255, 6-chloro-N-[5-(cyanomethyl)-3-fluoro-6-methoxypyridin-2-yl]-1H-indole-3-sulfonamide]	< 3.16 nM	< 3.16 nM
N#Cc1ccc(NS(=O)(=O)c2c[nH]c3cc(N=[N+]=[N-])ccc23)c(F)c1 [Compound I-335, 6-azido-N-(4-cyano-2-fluorophenyl)-1H-indole-3-sulfonamide]	3.16 to 31.6 nM	3.16 to 31.6 nM
N#Cc1ccc(NS(=O)(=O)c2c[nH]c3cc(Br)ccc23)c(F)c1 [Compound I-114, 6-bromo-N-(4-cyano-2-fluorophenyl)-1H-indole-3-sulfonamide]	< 3.16 nM	< 3.16 nM
O=S(=O)(Nc1cccc2nonc12)c1c[nH]c2c1ccc1cccnc12 [Compound I-119, N-(2,1,3-benzoxadiazol-4-yl)-1H-pyrrolo[3,2-h]quinoline-3-sulfonamide]	3.16 to 31.6 nM	3.16 to 31.6 nM
O=S(=O)(Nc1cc(F)c(Cl)cc1F)c1c[nH]c2c(OCC(F)F)c(Cl)ccc12 [Compound I-262, 6-chloro-N-(4-chloro-2,5-difluorophenyl)-7-(2,2-difluoroethoxy)-1H-indole-3-sulfonamide]	3.16 to 31.6 nM	< 3.16 nM
Cc1cc(F)c(NS(=O)(=O)c2c[nH]c3cc(Cl)ccc23)cc1F [Compound I-270, 6-chloro-N-(2,5-difluoro-4-methylphenyl)-1H-indole-3-sulfonamide]	< 3.16 nM	< 3.16 nM
O=S(=O)(Nc1ccc(S(F)(F)(F)(F)F)cc1F)c1c[nH]c2cc(Cl)ccc12 [Compound I-215, 6-chloro-N-[2-fluoro-4-(pentafluoro-lambda-6-sulfanyl)phenyl]-1H-indole-3-sulfonamide]	3.16 to 31.6 nM	3.16 to 31.6 nM
COc1nc(NS(=O)(=O)c2c[nH]c3cc(Cl)ccc23)c(F)cc1Cl [Compound I-254, 6-chloro-N-(5-chloro-3-fluoro-6-methoxypyridin-2-yl)-1H-indole-3-sulfonamide]	< 3.16 nM	< 3.16 nM
